These compounds were tested against T1, Axl (Homo sapiens, UniProt P30530) (assay: Phospho-Akt In-Cell Western Assay (ability to inhibit Axl activity)). Conditions: Hela cells, stimulated by Axl-antibody cross-linking, phospho-Akt chemiluminescence normalized to relative cell number.
T1 construct: endogenous in cells; host or cells: HeLa cells
T1 sequence (P30530 26-894): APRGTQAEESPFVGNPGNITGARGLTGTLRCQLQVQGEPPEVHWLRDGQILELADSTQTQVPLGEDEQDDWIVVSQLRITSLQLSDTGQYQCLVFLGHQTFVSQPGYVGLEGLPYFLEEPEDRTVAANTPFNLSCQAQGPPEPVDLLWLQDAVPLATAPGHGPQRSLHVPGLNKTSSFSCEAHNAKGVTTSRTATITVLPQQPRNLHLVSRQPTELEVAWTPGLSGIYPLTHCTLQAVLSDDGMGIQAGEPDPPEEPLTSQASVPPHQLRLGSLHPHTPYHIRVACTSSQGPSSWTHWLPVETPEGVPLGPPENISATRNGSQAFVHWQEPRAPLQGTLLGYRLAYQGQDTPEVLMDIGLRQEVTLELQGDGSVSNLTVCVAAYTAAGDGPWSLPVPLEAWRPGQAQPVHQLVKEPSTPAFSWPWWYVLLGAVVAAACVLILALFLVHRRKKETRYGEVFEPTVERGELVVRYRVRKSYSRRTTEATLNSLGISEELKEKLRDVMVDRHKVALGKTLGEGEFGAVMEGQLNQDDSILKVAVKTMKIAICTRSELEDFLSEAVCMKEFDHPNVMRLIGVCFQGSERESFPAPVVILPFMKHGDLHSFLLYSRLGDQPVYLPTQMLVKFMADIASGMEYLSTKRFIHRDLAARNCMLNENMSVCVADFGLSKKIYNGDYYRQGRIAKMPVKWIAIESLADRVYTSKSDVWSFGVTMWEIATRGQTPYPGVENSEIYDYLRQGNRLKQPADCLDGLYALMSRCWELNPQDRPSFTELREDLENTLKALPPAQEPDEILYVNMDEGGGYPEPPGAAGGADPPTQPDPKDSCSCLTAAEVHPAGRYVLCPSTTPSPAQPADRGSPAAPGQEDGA
Assay type: cell-based
Procedure, shortened: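 HeLa cells starved 24 h in 0.5% FCS with Axl/Fc 500 ng/mL, pre-treated 1 h at 37° C with compound, then stimulated 5 min by anti-Axl antibody cross-linking. Fixed cells probed for phospho-Akt with HRP secondary; chemiluminescence read.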

SMILES | IC50
CN1CCN(C2CCN(c3ccc(Nc4nc(N)n(-c5cc(-c6cccs6)c6c(n5)C5CCC6C5)n4)cc3F)CC2)CC1 (stereo not drawn) [Compound 47, 1-(5,8-methano-4-thiophen-2-yl-5,6,7,8-tetrahydroquinoline-2-yl)-N^3-(3-fluoro-4-(4-(4-methylpiperazin-1-yl)piperidin-1-yl)phenyl)-1H-1,2,4-triazole-3,5-diamine] | < 1000 nM
Nc1nc(Nc2ccc3c(c2)CCC(N2CCCC2)CC3)nn1-c1cc(-c2cccs2)c2c(n1)C1CCC2C1 (stereo not drawn) [Compound 48, 1-(5,8-methano-4-thiophen-2-yl-5,6,7,8-tetrahydroquinoline-2-yl)-N^3-(7-pyrrolidin-1-yl-6,7,8,9-tetrahydro-5H-benzo[7]annulene-3-yl)-1H-1,2,4-triazole-3,5-diamine] | < 1000 nM
Nc1nc(Nc2ccc3c(c2)CCC(N2CCCC2)CC3)nn1-c1cc(-c2ccccc2)c2c(n1)C1CCC2C1 (stereo not drawn) [Compound 49, 1-(5,8-methano-4-phenyl-5,6,7,8-tetrahydroquinoline-2-yl)-N^3-(7-pyrrolidin-1-yl-6,7,8,9-tetrahydro-5H-benzo[7]annulene-3-yl)-1H-1,2,4-triazole-3,5-diamine] | < 1000 nM
Cc1cc(Nc2nc(N)n(-c3cc(-c4ccccc4)c4c(n3)C3CCN4CC3)n2)cnc1N1CCN(CC2CC2)CC1 [Compound 50, 1-(1,4-ethano-8-phenyl-1,2,3,4-tetrahydro-1,5-naphthyridin-6-yl)-N^3-(3-methyl-2-(4-cyclopropylmethylpiperazin-1-yl)pyridine-5-yl)-1H-1,2,4-triazole-3,5-diamine] | < 1000 nM
Cc1cc(Nc2nc(N)n(-c3cc(-c4ccccc4)c4c(n3)C3CCC4C3)n2)cnc1N1CCN(CC2CC2)CC1 (stereo not drawn) [Compound 51, 1-(5,8-methano-4-phenyl-5,6,7,8-tetrahydroquinoline-2-yl)-N^3-(3-methyl-2-(4-cyclopropylmethylpiperazin-1-yl)pyridine-5-yl)-1H-1,2,4-triazole-3,5-diamine] | 1000 to 10000 nM
Cc1cc(Nc2nc(N)n(-c3cc(-c4cccs4)c4c(n3)C3CCC4C3)n2)cnc1N1CCN(CC2CC2)CC1 (stereo not drawn) [Compound 52, 1-(5,8-methano-4-thiophen-2-yl-5,6,7,8-tetrahydroquinoline-2-yl)-N^3-(3-methyl-2-(4-cyclopropylmethylpiperazin-1-yl)pyridine-5-yl)-1H-1,2,4-triazole-3,5-diamine] | < 1000 nM
Nc1nc(Nc2ccc(N3CCC(N4CCCC4)CC3)c(F)c2)nn1-c1cc(-c2cccs2)c2c(n1)C1CCC2C1 (stereo not drawn) [Compound 53, 1-(5,8-methano-4-thiophen-2-yl-5,6,7,8-tetrahydroquinoline-2-yl)-N^3-(3-fluoro-4-(4-(pyrrolidin-1-yl)piperidin-1-yl)phenyl)-1H-1,2,4-triazole-3,5-diamine] | < 1000 nM
CN(C)C1CCN(c2ccc(Nc3nc(N)n(-c4cc(-c5cccs5)c5c(n4)C4CCC5C4)n3)cc2F)CC1 (stereo not drawn) [Compound 54, 1-(5,8-methano-4-thiophen-2-yl-5,6,7,8-tetrahydroquinoline-2-yl)-N^3-(3-fluoro-4-(4-dimethylaminopiperidin-1-yl)phenyl)-1H-1,2,4-triazole-3,5-diamine] | < 1000 nM
CCOC(=O)CN1CCN(c2ccc(Nc3nc(N)n(-c4cc(-c5ccccc5)c5c(n4)C4CCN5CC4)n3)cc2F)CC1 [Compound 55, 1-(1,4-ethano-8-phenyl-1,2,3,4-tetrahydro-1,5-naphthyridin-6-yl)-N^3-(3-fluoro-4-(4-ethyloxycarbonylmethylpiperazin-1-yl)phenyl)-1H-1,2,4-triazole-3,5-diamine] | < 1000 nM
Nc1nc(Nc2ccc(N3CCN(CC(=O)O)CC3)c(F)c2)nn1-c1cc(-c2ccccc2)c2c(n1)C1CCN2CC1 [Compound 56, 1-(1,4-ethano-8-phenyl-1,2,3,4-tetrahydro-1,5-naphthyridin-6-yl)-N^3-(3-fluoro-4-(4-carboxymethylpiperazin-1-yl)phenyl)-1H-1,2,4-triazole-3,5-diamine] | < 1000 nM

Second part, the compound after the results:

IC50 | SMILES
< 1000 nM | Nc1nc(Nc2ccc(N3CCC(N4CCCC4)CC3)c(F)c2)nn1-c1cc(-c2ccc(C(F)(F)F)cc2)c2c(n1)C1CCN2CC1 [Compound 57, 1-(1,4-ethano-8-(4-trifluoromethylphenyl)-1,2,3,4-tetrahydro-1,5-naphthyridin-6-yl)-N^3-(3-fluoro-4-(4-(pyrrolidin-1-yl)piperidin-1-yl)phenyl)-1H-1,2,4-triazole-3,5-diamine]
< 1000 nM | CCOC(=O)C1CCN(C2CCN(c3ccc(Nc4nc(N)n(-c5cc(-c6ccccc6)c6c(n5)C5CCN6CC5)n4)cc3F)CC2)CC1 [Compound 58, (1,4-ethano-8-phenyl-1,2,3,4-tetrahydro-1,5-naphthyridin-6-yl)-N^3-(3-fluoro-4-(4-(4-ethyloxycarbonylpiperidin-1-yl)piperidin-1-yl)phenyl)-1H-1,2,4-triazole-3,5-diamine]
< 1000 nM | Nc1nc(Nc2ccc(N3CCC(N4CCC(C(=O)O)CC4)CC3)c(F)c2)nn1-c1cc(-c2ccccc2)c2c(n1)C1CCN2CC1 [Compound 59, 1-(1,4-ethano-8-phenyl-1,2,3,4-tetrahydro-1,5-naphthyridin-6-yl)-N^3-(3-fluoro-4-(4-(4-carboxypiperidin-1-yl)piperidin-1-yl)phenyl)-1H-1,2,4-triazole-3,5-diamine]
< 1000 nM | COC(=O)[C@@H]1CCCN1C1CCN(c2ccc(Nc3nc(N)n(-c4cc(-c5ccccc5)c5c(n4)C4CCN5CC4)n3)cc2F)CC1 [Compound 60, 1-(1,4-ethano-8-phenyl-1,2,3,4-tetrahydro-1,5-naphthyridin-6-yl)-N^3-(3-fluoro-4-(4-((2S)-2-methyloxycarbonylpyrrolidin-1-yl)piperidin-1-yl)phenyl)-1H-1,2,4-triazole-3,5-diamine]
< 1000 nM | Nc1nc(Nc2ccc(N3CCC(N4CCC[C@H]4C(=O)O)CC3)c(F)c2)nn1-c1cc(-c2ccccc2)c2c(n1)C1CCN2CC1 [Compound 61, 1-(1,4-ethano-8-phenyl-1,2,3,4-tetrahydro-1,5-naphthyridin-6-yl)-N^3-(3-fluoro-4-(4-((2S)-2-carboxypyrrolidin-1-yl)piperidin-1-yl)phenyl)-1H-1,2,4-triazole-3,5-diamine]
< 1000 nM | COc1ccc(-c2cc(-n3nc(Nc4ccc(N5CCC(N6CCCC6)CC5)c(F)c4)nc3N)nc3c2N2CCC3CC2)cc1 [Compound 62, 1-(1,4-ethano-8-(4-methoxyphenyl)-1,2,3,4-tetrahydro-1,5-naphthyridin-6-yl)-N^3-(3-fluoro-4-(4-(pyrrolidin-1-yl)piperidin-1-yl)phenyl)-1H-1,2,4-triazole-3,5-diamine]
< 1000 nM | Nc1nc(Nc2ccc(N3CCC(N4CCCC4)CC3)c(F)c2)nn1-c1cc(-c2cccnc2)c2c(n1)C1CCN2CC1 [Compound 63, 1-(1,4-ethano-8-pyridin-3-yl-1,2,3,4-tetrahydro-1,5-naphthyridin-6-yl)-N^3-(3-fluoro-4-(4-(pyrrolidin-1-yl)piperidin-1-yl)phenyl)-1H-1,2,4-triazole-3,5-diamine]
< 1000 nM | Nc1nc(Nc2ccc(N3CCC(N4CCCC4)CC3)c(F)c2)nn1-c1cc(-c2ccsc2)c2c(n1)C1CCN2CC1 [Compound 64, 1-(1,4-ethano-8-thiophen-3-yl-1,2,3,4-tetrahydro-1,5-naphthyridin-6-yl)-N^3-(3-fluoro-4-(4-(pyrrolidin-1-yl)piperidin-1-yl)phenyl)-1H-1,2,4-triazole-3,5-diamine]
